Data on three sequences can be found in patent US9708397B2, “Treatment of vasculoproliferative conditions with Lrg1 antagonists” (UCL Business PLC, priority 2010, dated 2017).

For this test, the system named is Lrg1/TGFβ1 induced Smad5 phosphorylation. In words: TGFβ-induced Smad5 phosphorylation in Lrg1 over-expressing GPNT endothelial cells. The conditions noted are these: 5 ng/ml TGFβ, co-treatment. In kind it is cell-based, rat. An excerpt: We next established whether we could block endothelial Smad5 phosphorylation induced by TGFβ with either an anti-Lrg1 antibody or by peptide sequences derived from Lrg1. Peptides derived from the leucine-rich repeat regions of the Lrg1 sequence (L1-24 and L169-192 of Appendix 2 (SEQ ID NOS:3-4) or L94-117 and L262-285 of Appendix 3 (SEQ ID NOS:3-4)), which are believed to be involved in protein-protein interactions, and from the highly conserved leucine-rich C-terminal domain (L227-252 of Appendix 2 (SEQ ID NO:5) or L320-345 of Appendix 3 (SEQ ID NO:5)) were generated (Appendix 2). […] Treatment of control cells with 5 ng/ml TGFβ results in a significant increase in Smad5 phosphorylation.

As for “KMFSQNDTRCAGPEAVKGQTLLAVAK (listed as Homo sapiens) [L227-252]”, the “effect on Smad5 phosphorylation” value is reported as “dramatic inhibitory effect”. In addition, the “effect on Smad5 phosphorylation” value (listed as Lrg1 blocking peptide derived from the C-terminus) is given as “inhibits”.
As for “LDMLDLSNNSLASVPEGLWASLGQ (listed as Homo sapiens) [L169-192, Peptide from a leucine-rich repeat region of human Lrg1]”, the “effect on Smad5 phosphorylation” value was “partial effect”.
Same read-out and setting: then “LQELHLSSNGLESLSPEFLRPVPQ (listed as Homo sapiens) [L1-24, Peptide from a leucine-rich repeat region of human Lrg1]”, with “no effect”.
